Experimental data: US20100152140A1, “Method of Cancer Treatment with Naphthol Analogs” (priority 2007, published 2010)

Tests used:
H1734 cells [1] = assay: MTT viability, protection from Ro-31-8220 induced cytotoxicity; assay type: cell-based, human; settings: H1734, inhibitor 2 h then 20 μM Ro-31-8220, 24 h
Description: (§1) The cytotoxic activity of Ro-31-8220 was also determined against the all four NSCLC cells and NHTBE cells. Briefly, the cells (2,000/well) were incubated in triplicate in 96-well plates in the presence or absence of indicated test samples in a final volume of 0.2 ml for different days at 37° C. Afterwards, we performed the MTT assay.

[2] = system: NSCLC cells (H1734, H226, A549, H292); assay: MTT assay, NSCLC cell lines; assay type: cell-based, human
Description: as §1

H1734 cells [3] = assay: TUNEL apoptosis assay; assay type: cell-based, human; settings: H1734, 5 μM, 48 h
Description: Apoptosis Assay. H1734 cells (200,000) were plated in chamber slides; the next day, transfected with CREBwt, KCREB, and CREB133 DNA (100 ng/chamber), and with 100 nM siCREB. The terminal transferase dUTP nick end labeling (TUNEL) assay was performed according to the manufacturer's instructions (Promega). Briefly, the cells were fixed after 48 h of transfection in 4% formaldehyde and permeabilized with 0.5% Triton-X-100. The cells were incubated on the slides with terminal deoxynucleotidyl transferase and fluorescein-dUTP. They were then co-stained with DAPI and visualized with an Axioskop 40 fluorescence microscope (Carl Zeiss, Thornwood, N.Y.). Three fields were randomly counted for each sample. The images were captured at a magnification of 400× and stored using Axiovision software (Carl Zeiss), as described in the instructions provided by the manufacturer.

phospho-Erk1/2 = assay: Western blot of phospho-Erk1/2 in H1734 cells; assay type: cell-based, human
Description: (§2) Western Blot Analysis. Protein extracts from each of NSCLC cells and the NHTBE cells, were prepared by lysing the cells in SDS lysis buffer (250 mM Tris-Cl, pH 6.5, 2% SDS, 4% β-mercaptoethanol, 0.02% bromophenol blue, 10% glycerol) containing protease and phosphatase inhibitors. Standard SDS-PAGE and Western blotting procedures were used to analyze the cell extracts. Nitrocellulose blots were probed with anti-CREB and anti-phospho-specific pSer-133 CREB (Upstate Biotechnology, Waltham, Mass.); anti-Bcl-2, anti-Bcl-XL, anti-phospho-Erk1/2, and anti-Erk1/2 (Santa Cruz Biotechnology, Santa Cruz, Calif.); and anti-phospho-Rsk and anti-Rsk (Cell Signaling Technology, Cambridge, Mass.). To detect the cleavage products of apoptosis, nitrocellulose blots were probed with anti-poly (ADP-ribose) polymerase (PARP), anti-caspase-9, and anti-caspase-3 antibodies (New England Biolabs, Beverly, Mass.). Anti-actin antibodies were purchased from Sigma-Aldrich (St. Louis, Mo.) and the caspase-3 inhibitor Ac-DEVD-CHO was obtained from Promega (Madison, Wis.).

H226 cells = assay: Soft agar colony assay, H226; assay type: cell-based, human; settings: H226, 2 μM, 28 days
Description: (§3) Soft Agar Colony Assay. Single-cell suspensions of the H1734 and H226 cells were treated with or without different concentrations of Ro-31-8220 and then mixed with agarose to a final concentration of 0.35%. Aliquots of 1.5 ml containing 10^4 cells and 10% fetal calf serum were plated in triplicate in six-well plates over a base layer of 0.7% agarose and allowed to gel. The number of colonies that were greater than 60 μm was counted after 28 days of incubation.

[4] = system: CRE consensus oligonucleotide binding; assay: EMSA of CRE consensus oligonucleotide binding, H1734 nuclear extracts; assay type: cell-based, human; settings: serum free media
Description: Electrophoretic Mobility Shift Assay. Isolation of nuclear extracts, sequences, preparation of oligonucleotide probes, electrophoretic mobility shift assay (EMSA) was conducted as previously described (19).

H1734 cells [5] = assay: Flow cytometric cell cycle analysis; assay type: cell-based, human; settings: H1734, 10 μM
Description: Flow Cytometric Analysis. H1734 cells were first synchronized by serum starvation overnight and then exposed to Ro-31-8220 for different lengths of time in the presence of 5% serum. The cells were washed, trypsinized, and fixed in 70% ethanol for 1 h at −20° C. Finally, cells were washed with PBS, resuspended, and stained in PBS containing 25 μg of propidium iodide and 1 μg/ml RNAase a for 30 min at room temperature. The distribution of cells during the cell cycle was then analyzed with a Facscalibur flow cytometer (Becton Dickinson, Bedford, Mass.).

NHTBE cells = assay: MTT assay, NHTBE cells; assay type: cell-based, human; settings: NHTBE cells compared with NSCLC cells
Description: as §1

H1734 cells [6] = assay: Soft agar colony assay, H1734; assay type: cell-based, human; settings: H1734, 2 μM, 28 days
Description: as §3

H1734 cells [7] = assay: Western blot of apoptosis cleavage products (PARP, caspase-9, caspase-3); assay type: cell-based, human
Description: as §2

CREB = assay: Western blot of p-CREB (CREB activation) in H1734 cells; assay type: cell-based, human; settings: serum free media, time course and various concentrations for 4 h
Description: as §2

[8] = system: U937 human leukemia cells; settings: cited from earlier work
[9] = system: nuclear transcription factor kappa B-dependent transcription; settings: pulmonary A549 cells; cited from earlier work
pCREB = assay: Immunocytochemistry for pCREB localization in H1734 cells; assay type: cell-based, human; settings: 20 μM, 4 h, serum free media
Description: Immunocytochemistry for CREB Localization. H1734 cells (1×10^5 cells/ml) were plated on a glass chamber slide (Falcon; BD Biosciences, San Jose, Calif.) for adherence and treated the next day for 4 h with Ro-31-8220. The chambers were removed, and cells were fixed with cold acetone. After a brief washing in PBS, the slides were blocked with 5% normal goat serum in PBS for 1 h and then incubated for 4 h with rabbit polyclonal anti-pCREB antibody (dilution, 1:100). The slides were washed, incubated with goat anti-rabbit IgG-Alexa 594 (Molecular Probes, Eugene, Oreg.) (dilution 1:100) for 1 h, and counter-stained for nuclei with 4′,6-diamidino-2-phenylindole, dihydrochloride (DAPI; 50 ng/ml) (Molecular Probes, Eugene, Oreg.) for 15 min. The slides were mounted with a mounting medium (Sigma-Aldrich), and confocal images were captured with an Olympus FV500 confocal microscope (NY) by using a Plan Apo 60× oil objective.

interleukin-6 = settings: human cord blood-derived mast cells, mouse bone marrow-derived mast cells; cited from earlier work
phospho-Rsk = assay: Western blot of phospho-Rsk in H1734 cells; assay type: cell-based, human; settings: serum free media
Description: as §2

With `CC(=O)N[C@@H](CC(=O)O)C(=O)N[C@@H](CCC(=O)O)C(=O)N[C@H](C(=O)N[C@H](C=O)CC(=O)O)C(C)C` [Ac-DEVD-CHO] the “protection from Ro-31-8220 induced cytotoxicity” value (H1734 cells [1]) was “protected the cells”.

In the case of `O=S(=O)(NCCNC/C=C/c1ccc(Br)cc1)c1cccc2cnccc12` [H-89], the “cell growth of NSCLC cell lines” value ([2]; compared with Ro-31-8220) is reported as “not significantly inhibiting the cell growth”.

In the case of `Cn1cc(C2=C(c3cn(CCCSC(=N)N)c4ccccc34)C(=O)NC2=O)c2ccccc21` [Ro-31-8220, 2-{1-[3-(Amidinothio)propyl]-1H-indol-3-yl}-3-(1-methylindol-3-yl)maleimide], the “cells in which apoptosis was induced (TUNEL)” value (H1734 cells [3]) is reported as 52%, the “time to start of decrease of phospho-Erk1/2 expression” value (phospho-Erk1/2) is reported as at most 30 min and the “concentration at which decrease of phospho-Erk1/2 began” value (phospho-Erk1/2; 4 h) is reported as 5 µM. The “decrease in colony formation” value (H226 cells) was 85%, the “CRE consensus oligonucleotide binding” value [4] was “suppressed in a time dependent and dose dependent manner” and the “percentage of cells in the G2 phase” value (H1734 cells [5]; 6 h, controls 18%) was 24.5%. The “percentage of cells in G2 phase” value (H1734 cells [5]; 24 h, controls 15%) was 53%, the “suppression of mitochondrial activity (MTT)” value (NHTBE cells) was “significantly less than that in the NSCLC cells” and the “decrease in colony formation” value (H1734 cells [6]) was 85%. For the same compound, the PARP cleavage (H1734 cells [7]; H1734, 20 μM Ro-31-8220) was “cleavage of a 118-kDa PARP protein into an 87-kDa fragment”, the caspase-9 activation (H1734 cells [7]; H1734, 20 μM Ro-31-8220, 47-kDa to 37-kDa band) was “time-dependent activation” and the caspase-3 activation (H1734 cells [7]; H1734, 20 μM Ro-31-8220, 24 h) was “activation of caspase-3”. For the same compound, the “CREB activation (p-CREB)” value (CREB) was “substantially suppressed”, the “mitochondrial activity (MTT), cell growth” value ([2]; all four NSCLC cell lines, dose-dependent) was “suppressed mitochondrial activity” and the “apoptosis in U937 human leukemia cells” value [8] was “induces apoptosis”. For the same compound, the “proliferation of U937 human leukemia cells” value [8] was “suppressed the proliferation”, the “NF-kappa B-dependent transcription” value [9] was “suppress” and the “nuclear pCREB localization” value (pCREB) was “induced the nuclear disappearance of pCREB”. The “autocrine growth factor interleukin-6” value (interleukin-6) was “suppress”, the “concentration at which decrease of phospho-Rsk began” value (phospho-Rsk; 4 h) was 5 µM and the “time to suppression of phospho-Rsk” value (phospho-Rsk) was at most 2 h.
